In patent US8420606B2, “Method of utilizing physiological activity of rare saccharide and composition containing rare saccharide” (priority 2002, dated 2013):
“Also recorded” adds a separate entry of the source.

How the values were obtained:
CINC-1 mRNA = assay: rat renal ischemia-reperfusion, northern blotting; format: in vivo; conditions: 400 mg/kg into the vein 30 minutes before clamping, 45 minutes ischemia, reperfusion for 2 hours, preliminary
Procedure: Target . . . Male rat with weight of about 300 g. Experiment method . . . The renal ischemia model was prepared after putting the rat under anesthesia with Nembutal. Renal ischemia . . . After picking up the right kidney, the left renal blood vessel was clamped for 45 minutes. Drugs used . . . D-allose and D-psicose (400 mg/kg per drug) were administrated into the vein 30 minutes before clamping for renal ischemia. Measurement item . . . An influence of each drug upon appearance of a trouble factor, i.e., […] neutrophil chemoattractant (CINC)-1 mRNA, was measured (after reperfusion for 2 hours).

[1] = tested on: Rat leukocyte (granulocyte); assay: production of active oxygen from leukocyte, LO12 chemiluminescence, zymosan; format: cell-based; conditions: for production of active oxygen from leukocyte: saccharide 10 mM added to the producing system, zymosan
Procedure: Influences of various kinds of rare saccharides upon production of active oxygen from leukocyte were examined under the conditions given below. In this Example 5, an effect against the production of active oxygen from leukocyte was examined with LO12 chemiluminescence.
(1) Target leukocyte to which the rare saccharides were added: Rat leukocyte (granulocyte) was used.
(2) Rare saccharides added: In addition to D-allose as a rare saccharide belonging to aldose, D-psicose and D-altros as rare saccharides belonging to ketose and D-tallitol belong to polyol were added as other comparative saccharides. Further, D-glucose and D-fructose were employed as saccharides abundant in the natural world.
(3) Experiment method: (1) Changes over time in production of active oxygen from rat leukocyte . . . The time-dependent progress in production of active oxygen caused by adding zymosan particles to rat leukocyte (granulocyte) was examined. Also, the time-dependent progress in production of active oxygen caused under the presence of each of the rare saccharides was examined.
(2) Influences of rare saccharides upon production of active oxygen . . . By adding the various saccharides to the system for producing active oxygen from leukocyte, the amount of produced active oxygen was measured for each saccharide. The concentration of each of the added rare saccharides was set to 10 mM. Also, the measurement was made under the condition without addition of any saccharides.
(3) Effect of rare saccharides upon production of active oxygen . . . The rare saccharides were each added at concentration of 10 mM after the start of phagocytosis and the start of the production of active oxygen subsequent to addition of zymosan to leukocyte.
(4) Concentration dependency of active-oxygen production inhibitory effect of D-allose . . . Concentration dependency of the active-oxygen production inhibitory effect of D-allose was examined. D-allose was added at concentration of 0 mM, 5 mM and 10 mM.

[2] = rat blood-sugar value after intravenous saccharide under anesthesia; format: in vivo; conditions: for blood sugar value: 200 mg/kg BW intravenous, normal rats under anesthesia, fasted
Procedure: (2) Method: 1) Administration of rare saccharide: An SD male rat (with weight of about 300 g) was employed in an experiment after fasting for 20 to 24 hours. Nembutal (58 mg/kg B.W) was applied to the rat through abdominal administration, and after cutting the neck under anesthesia, a silicon tube was fixedly kept inserted in the jugular vein. A 1-ml syringe was connected to the silicon tube for administration of the rare saccharide. 2) Blood-collecting: Blood was collected by using the 1-ml syringe through the silicon tube inserted in the jugular vein. The blood-collecting was made immediately before the administration of the rare saccharide and then after 5, 10, 15, 20, 25, 30, 60, 120, 180 and 240 minutes from the same. 3) Blood sugar measurement: The blood sugar value in the collected blood was measured by using Antosense II (made by Bayer Medical).

human albumin = human albumin (Homo sapiens, UniProt P02768); assay: saccharification (glycation) of albumin, glycoalbumin reagent; format: biochemical; conditions: albumin 3 g/dl
Sequence of human albumin (P02768 25-609): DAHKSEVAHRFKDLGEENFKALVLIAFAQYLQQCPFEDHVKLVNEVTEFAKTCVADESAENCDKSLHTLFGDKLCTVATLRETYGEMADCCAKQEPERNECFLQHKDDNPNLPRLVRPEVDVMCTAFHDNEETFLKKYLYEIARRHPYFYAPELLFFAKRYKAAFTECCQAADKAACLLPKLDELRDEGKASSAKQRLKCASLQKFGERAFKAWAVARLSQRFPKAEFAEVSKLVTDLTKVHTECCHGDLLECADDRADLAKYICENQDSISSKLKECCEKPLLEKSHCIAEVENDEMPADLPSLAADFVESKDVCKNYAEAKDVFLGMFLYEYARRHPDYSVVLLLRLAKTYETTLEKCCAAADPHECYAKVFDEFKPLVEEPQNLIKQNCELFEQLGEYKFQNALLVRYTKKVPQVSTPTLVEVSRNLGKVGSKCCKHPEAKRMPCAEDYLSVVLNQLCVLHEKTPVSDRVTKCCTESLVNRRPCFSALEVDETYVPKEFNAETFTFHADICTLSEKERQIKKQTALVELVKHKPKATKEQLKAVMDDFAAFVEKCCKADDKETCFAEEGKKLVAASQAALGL
Procedure: (2) Method: After fragmenting albumin into amino acids by using protease K, i.e., glycoalbumin (GA) measurement reagent (made by Oriental Yeast Co., Ltd.), glycolysine was measured by using ketoamine oxydase (see FIG. 38). Glycation of human albumin with various rare saccharides was examined. A sample was prepared through the steps of dissolving 3 g/dl of pure human albumin in PBS and then dissolving each of the rare saccharides so as to prepare a solution in final concentration of 55.5 mM. The prepared solution was filtrated with a filter of 0.25 μm mesh and sterilized, followed by incubation at 37° C. for 7 days. During the incubation, the GA concentration (glycolysine concentration) was measured at intervals of exactly 24 hours. Further, similar experiments were conducted by adding each of the rare saccharides in an albumin solution (final concentration 3 g/dl) and a glucose solution (final concentration 55.5 mM) so that each of the rare saccharides had final concentration of 55.5 mM.

[3] = saccharide 55.5 mM + D-glucose 55.5 mM
[4] = saccharide 55.5 mM, 37° C., 7 days

O=C(CO)[C@H](O)[C@H](O)[C@H](O)CO [D-psicose]
appearance rate of CINC-1 mRNA (CINC-1 mRNA): suppressed
appearance rate of CINC-1 mRNA (CINC-1 mRNA; listed as psicose): reduced
production of active oxygen from leukocyte [1]: No inhibitory effect
blood sugar value [2]: light hypoglycemic
blood sugar value ([2]; listed as Psicose): reduced during a period of 30 to 60 minutes
effect of inhibiting glycation under coexistence with glucose (human albumin; [3]): not found
glycation (saccharification) of albumin (human albumin; [4]): not found; also recorded: does not promote saccharification of albumin

O=C[C@H](O)[C@@H](O)[C@H](O)[C@H](O)CO [D-glucose, reference compound]
production of active oxygen from leukocyte [1]: No inhibitory effect
blood sugar value [2]: temporarily increased
time until blood sugar value approached a normal value ([2]; D-glucose 200 mg/kg BW intravenous): about 60 minutes
saccharification rate of albumin (human albumin; [4]): about 50 μmol/day

O=C[C@H](O)[C@H](O)[C@H](O)[C@H](O)CO [D-allose]
appearance rate of CINC-1 mRNA (CINC-1 mRNA): suppressed
appearance rate of CINC-1 mRNA (CINC-1 mRNA; listed as allose): reduced
effective concentration for active-oxygen production inhibition ([1]; 0, 5 and 10 mM tested): approximately 10 mM
production of active oxygen, saccharide added after start of production ([1]; 10 mM added after start of phagocytosis and of active oxygen production): the inhibitory effect was found
active-oxygen production inhibitory effect ([1]; D-allose 5 mM): did not appear
inhibition at 10000 µM ([1]; Rattus norvegicus, Leukocyte, D-allose 10 mM, read-out: active-oxygen production inhibitory effect): ≥ 50%
production of active oxygen from leukocyte [1]: inhibited; also recorded: has an effect of inhibiting production of active oxygen; also recorded: very strong effect of inhibiting the production of active oxygen
blood sugar value [2]: no hypoglycemic was found
saccharification rate of albumin under coexistence with glucose (human albumin; [3]): about 140 μmol/day
saccharification rate of albumin (human albumin; [4]): about 90 μmol/day
